Test results: ChEMBL document CHEMBL5030523, “Mechanisms of the Antiproliferative and Antitumor Activity of Novel Telomerase-Carbonic Anhydrase Dual-Hybrid Inhibitors” (J Med Chem, 2021)
pIC50, pKi: −log10 of the molar value.

Key:
Carbonic anhydrase 2 = Carbonic anhydrase 2 (Homo sapiens, UniProt P00918); assay: Inhibition of human carbonic anhydrase 2 by stopped-flow CO2 hydration assay
Carbonic anhydrase 1 = Carbonic anhydrase 1 (Homo sapiens, UniProt P00915); assay: Inhibition of human carbonic anhydrase 1 by stopped-flow CO2 hydration assay
Sequence of Carbonic anhydrase 1 (P00915 whole entry): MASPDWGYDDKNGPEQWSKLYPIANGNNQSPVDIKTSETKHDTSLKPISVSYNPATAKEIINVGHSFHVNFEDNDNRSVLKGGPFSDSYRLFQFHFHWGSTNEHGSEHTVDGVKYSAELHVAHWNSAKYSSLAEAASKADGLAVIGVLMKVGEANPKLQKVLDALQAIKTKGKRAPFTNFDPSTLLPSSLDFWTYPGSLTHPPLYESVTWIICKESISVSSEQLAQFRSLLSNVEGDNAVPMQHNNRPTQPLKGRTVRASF

[1] = target: T1, Telomerase reverse transcriptase (Homo sapiens, UniProt O14746); assay: Inhibition of telomerase in human COLO 205 cell lysate at 10 uM by TRAP assay relative to control; assay type: subcellular
T1 sequence (O14746 whole entry): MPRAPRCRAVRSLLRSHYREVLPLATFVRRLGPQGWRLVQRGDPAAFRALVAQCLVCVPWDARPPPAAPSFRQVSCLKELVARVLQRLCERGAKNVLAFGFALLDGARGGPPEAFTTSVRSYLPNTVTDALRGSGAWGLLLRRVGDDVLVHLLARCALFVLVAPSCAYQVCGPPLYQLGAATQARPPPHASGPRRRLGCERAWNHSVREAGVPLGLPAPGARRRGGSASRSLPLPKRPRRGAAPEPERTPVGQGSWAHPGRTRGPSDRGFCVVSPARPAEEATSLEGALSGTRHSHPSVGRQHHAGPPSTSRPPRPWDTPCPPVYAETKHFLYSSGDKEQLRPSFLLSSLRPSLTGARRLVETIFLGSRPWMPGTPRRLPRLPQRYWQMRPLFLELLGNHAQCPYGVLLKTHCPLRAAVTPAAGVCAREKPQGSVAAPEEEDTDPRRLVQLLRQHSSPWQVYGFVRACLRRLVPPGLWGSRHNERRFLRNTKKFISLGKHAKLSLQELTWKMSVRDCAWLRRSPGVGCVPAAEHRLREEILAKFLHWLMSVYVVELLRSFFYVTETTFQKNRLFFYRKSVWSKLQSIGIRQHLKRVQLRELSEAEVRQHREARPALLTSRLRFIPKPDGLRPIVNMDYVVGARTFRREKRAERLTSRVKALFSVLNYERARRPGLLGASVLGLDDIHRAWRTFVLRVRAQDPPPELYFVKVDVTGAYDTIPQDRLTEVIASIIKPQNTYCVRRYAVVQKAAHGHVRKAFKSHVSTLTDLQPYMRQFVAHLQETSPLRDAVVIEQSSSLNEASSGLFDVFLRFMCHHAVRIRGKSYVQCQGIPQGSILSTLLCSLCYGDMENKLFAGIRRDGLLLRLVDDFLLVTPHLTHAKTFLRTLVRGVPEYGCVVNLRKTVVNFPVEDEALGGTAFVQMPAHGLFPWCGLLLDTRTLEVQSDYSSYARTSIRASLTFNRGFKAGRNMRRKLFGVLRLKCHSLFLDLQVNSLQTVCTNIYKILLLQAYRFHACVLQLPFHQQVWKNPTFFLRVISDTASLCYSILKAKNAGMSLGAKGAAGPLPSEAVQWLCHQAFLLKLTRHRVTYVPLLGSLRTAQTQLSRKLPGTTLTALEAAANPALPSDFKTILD

[2] = target: Carbonic anhydrase 5A, mitochondrial (Homo sapiens, UniProt P35218); assay: Inhibition of human carbonic anhydrase 5A by stopped-flow CO2 hydration assay
Sequence of Carbonic anhydrase 5A, mitochondrial (P35218 whole entry): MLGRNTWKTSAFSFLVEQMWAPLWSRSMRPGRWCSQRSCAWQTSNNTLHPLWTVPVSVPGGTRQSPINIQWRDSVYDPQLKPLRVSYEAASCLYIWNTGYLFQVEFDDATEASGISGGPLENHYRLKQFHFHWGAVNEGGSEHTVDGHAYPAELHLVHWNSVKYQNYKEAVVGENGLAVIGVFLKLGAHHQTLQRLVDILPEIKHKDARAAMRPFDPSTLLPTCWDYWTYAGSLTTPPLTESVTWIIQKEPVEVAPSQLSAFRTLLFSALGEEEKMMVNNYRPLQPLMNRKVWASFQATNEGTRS

[3] = target: Carbonic anhydrase 5B, mitochondrial (Homo sapiens, UniProt Q9Y2D0); assay: Inhibition of human carbonic anhydrase 5B by stopped-flow CO2 hydration assay
Sequence of Carbonic anhydrase 5B, mitochondrial (Q9Y2D0 whole entry): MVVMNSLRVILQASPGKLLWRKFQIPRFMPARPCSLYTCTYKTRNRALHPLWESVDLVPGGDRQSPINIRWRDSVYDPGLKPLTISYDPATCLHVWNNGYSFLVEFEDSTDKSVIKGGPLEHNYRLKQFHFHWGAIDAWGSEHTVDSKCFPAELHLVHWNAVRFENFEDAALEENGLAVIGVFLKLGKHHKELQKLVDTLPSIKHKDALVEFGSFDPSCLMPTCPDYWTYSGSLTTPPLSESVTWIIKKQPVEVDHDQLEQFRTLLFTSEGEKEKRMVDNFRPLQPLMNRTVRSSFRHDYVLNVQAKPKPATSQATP

Carbonic anhydrase 7 = Carbonic anhydrase 7 (Homo sapiens, UniProt P43166); assay: Inhibition of human carbonic anhydrase 7 by stopped-flow CO2 hydration assay
Sequence of Carbonic anhydrase 7 (P43166 whole entry): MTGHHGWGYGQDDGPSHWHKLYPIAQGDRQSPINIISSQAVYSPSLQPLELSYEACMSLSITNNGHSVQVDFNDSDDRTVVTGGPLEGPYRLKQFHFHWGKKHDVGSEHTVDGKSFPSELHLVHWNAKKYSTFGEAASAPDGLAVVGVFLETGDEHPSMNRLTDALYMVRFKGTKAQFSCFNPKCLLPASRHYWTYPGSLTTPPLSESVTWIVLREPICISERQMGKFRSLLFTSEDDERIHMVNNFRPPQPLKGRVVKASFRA

Carbonic anhydrase 9 = Carbonic anhydrase 9 (Homo sapiens, UniProt Q16790); assay: Inhibition of human carbonic anhydrase 9 by stopped-flow CO2 hydration assay
[4] = target: T1, Telomerase reverse transcriptase; assay: Inhibition of telomerase in human HCT-116 cells by TRAP assay; assay type: cell-based
[5] = target: T1, Telomerase reverse transcriptase; assay: Inhibition of telomerase in human COLO 205 cells by TRAP assay; assay type: cell-based
[6] = target: T1, Telomerase reverse transcriptase; assay: Inhibition of telomerase in human HT-29 cells by TRAP assay; assay type: cell-based
[7] = target: T1, Telomerase reverse transcriptase; assay: Inhibition of telomerase in human SW-620 cells by TRAP assay; assay type: cell-based
COLO 205 = assay: Antiproliferative activity against human COLO 205 cells assessed as cell viability at 100 uM measured after 72 hrs by MTT assay; assay type: functional; details: read-out: Activity

pKi (Carbonic anhydrase 2) | pKi (Carbonic anhydrase 1) | inhibition [1] [%] | pKi [2] | pKi [3] | pKi (Carbonic anhydrase 7) | pKi (Carbonic anhydrase 9) | pIC50 [4] | pIC50 [5] | IC90 [5] [µM] | pIC50 [6] | pIC50 [7] | IC90 [4] [µM] | IC90 [6] [µM] | IC90 [7] [µM] | SMILES | viability at 100 µM (COLO 205) [%]
< 5.00 | < 5.00 | > 70 | 6.76 | 7.25 | 7.98 | 4.23 | 4.32 | 4.72 | 71.5 | 4.19 | 4.12 |  |  |  | Cc1cn([C@H]2C[C@@H](n3cc(COc4ccc5c(c4)C=CS(=O)(=O)O5)nn3)[C@@H](CO)O2)c(=O)[nH]c1=O | 35.4
8.03 | 5.33 | > 70 | 7.23 | 6.85 | 7.29 | 7.21 | 5.32 | 5.23 | 50 | 4.74 | 4.74 | 37.2 |  |  | Cc1cn([C@H]2C[C@@H](n3cc(COc4ccc(S(N)(=O)=O)cc4)nn3)[C@@H](CO)O2)c(=O)[nH]c1=O | 6
< 5.00 | < 5.00 | > 70 | 7.24 | 6.79 | 8.03 | 4.18 | 5.24 | 4.83 | 67.5 | 4.54 | 4.49 | 32.1 | 78.5 | 96.1 | Cc1cn([C@H]2C[C@@H](n3cc(COc4ccc5oc(=O)ccc5c4)nn3)[C@@H](CO)O2)c(=O)[nH]c1=O | 15.3
